Assays:
HEK293T cells = assay: Voltage-clamp membrane current during illumination; assay type: cell-based, human; conditions: voltage-clamp at approximately −80 mV
Protocol: To examine whether light-activated RubpyC17 can directly interact and open or block endogenous ion channels, HEK293T cells were preincubated with RubpyC17, and patch-clamped in a voltage-clamp configuration. Voltage-clamp configuration allowed the cells to be clamped at a potential where most voltage-gated ion channels are closed (approximately −80 mV). […] The current-voltage relationship (FIGS. 5C, D) as well as the steady-state voltage-dependent activation curves of RubpyC17-treated chromaffin cells in voltage-clamp mode before and during light illumination (FIG. 5E).

mouse chromaffin cells = assay: Carbon fiber amperometry of light-triggered secretion; assay type: cell-based
Protocol: Carbon fiber electrodes were prepared using established methodology and coupled to an EPC10 amplifier. A+800 mV constant voltage was applied to the electrode relative to the Ag/AgCl bath electrode. The amperometry recordings were sampled at 4 kHz using Pulsemaster (HEKA). Extracellular composition consisted of 120 mM NaCl, 20 mM KCl, 10 mM HEPES, 1 mM MgCl2, 2 mM CaCl2, 10 mM glucose, pH adjusted to 7.2-7.4, and osmolarity adjusted to 290-300. Light stimulation in the blue spectrum originated from a xenon lamp source through a 470/40 nm bandpass excitation filter. The duration of illumination varied and is indicated by bars on figures.
Action potential firing triggers secretion of norepinephrine and epinephrine from adrenal chromaffin cells, which can be readily detected by the technique of carbon-fiber amperometry, thus serving as a surrogate to detect action potential firing. […] Out of 18 RubpyC17-loaded cells tested, 15 cells (83%) experienced increased secretion by at least 100-fold during light illumination. Unlike the changes in light-induced depolarization, light-induced changes in secretion appeared to be more transient. One possible explanation for this is that at any moment in time, there are only a small number of release-competent vesicles—the so-called readily releasable pool of vesicles—and maintained stimulation causes rapid depletion of the readily releasable pool of vesicles in the initial phase of stimulation.

[1] = test system: cell lines and primary cells; assay: Cell health / tolerance on RubpyC17 exposure (stable gigaseal, viability); assay type: cell-based
Protocol: However, in several embodiments, other organic ligands coupled to other transition metals are also used, with reduced and/or non-existent adverse side effects. […] Excessive and prolonged whole cell incubation with RubpyC17 (e.g., >10 μM for >5 min) may result in cell toxicity, since a stable gigaseal cannot be stably maintained in those cells. At this time, the mechanism behind the adverse effects on cell health upon RubpyC17 overexposure is not yet fully known. Since perforation was not achieved when a small patch of membrane was exposed to a high dose of RupbyC17, it was hypothesized that when an entire cell is overexposed to RubpyC17, there may be sufficient random interactions between excess RubpyC17 complex and endogenous surface molecules (i.e., proteins, carbohydrates, sugars), triggering signals that lead to cell health deterioration. However, when used in its appropriate dose range (e.g., <about 10 μM for cell lines and <about 2 μM for primary cells, according to one embodiment), RubpyC17 is tolerated by cells and consistently confers light sensitivity.

[2] = test system: whole-mount retinas from RCS rats; assay: Whole-mount retina multi-electrode array recording; assay type: cell-based, rat
From the text: FIGS. 14A-14B depicts data from whole-mount retinas from RCS rats. […] Each bin represents the frequency of spikes for 1 second. Before Rubpy treatment (14A), illumination at 480 nm elicited minimal change in spike frequency. […] Downward arrows mark the time of 100 ms (1st) and 1 second (2nd to fourth) light stimuli.
The retina will be freshly dissected from Royal College of Surgeons (RCS) rats (9 months' or older to ensure total loss of photoreceptors). The whole-mount retina will then be placed onto a multi-electrode array with the ganglion cell layer side facing the electrodes and is held down on the array using a lightly weighted porous membrane. Extracellular field potentials are recorded from 15 or 75 μm diameter electrodes using an MEA1060-Up amplifier and MC Rack software (Multi-Channel Systems). The activity of the retinal in response to illumination is monitored before and after PVN incubation. The retina is continuously perfused with oxygenated (95% O2, 5% CO2), heated (32C) Ames' Medium for baseline activity. The retina is then perfused with Ames' Medium containing PVN for 30 min to 1 hr, followed by 10 min wash with regular Ames' Medium before recording in Ames' Medium with 5-10 mM ascorbate. The retina will be illuminated by white LED light through a bandpass excitation filter (460-500 nm) with durations of 100 μs, 1 ms, 10 ms, 100 ms, 1 s and 30 s. […]

RCS rats = assay: Extracellular recording from superior colliculus after intravitreal injection; assay type: in vivo, rat
From the text: This finding was reproduced in 3 of 3 RCS rats injected with Rubpy-C17, and in 2 of 2 control (sham injection) RCS rats.

**Q.** For [Ru(bpy)2(bpy-C17)](PF6)2 [RubpyC17], which “light-induced changes in membrane current” value (HEK293T cells) is on record?
**A.** did not exhibit light-induced changes in membrane current

**Q.** And the “light-triggered secretion (amperometric spikes)” value (mouse chromaffin cells; 2 μM RubpyC17, 488 nm)?
**A.** exhibited numerous amperometric current spikes

**Q.** What about the “cells with increased secretion during light illumination” value (mouse chromaffin cells; 15 of 18 RubpyC17-loaded cells) of the same substance?
**A.** 83%

**Q.** And the “increase in secretion during light illumination” value (mouse chromaffin cells; responding cells)?
**A.** at least 100 fold

**Q.** What about the tolerated dose range ([1]; cell lines) of the same substance?
**A.** < 10 µM

**Q.** And the “whole cell incubation concentration that may result in cell toxicity” value ([1]; for >5 min, stable gigaseal not maintained)?
**A.** > 10 µM

**Q.** What about the “viability of chromaffin cells” value ([1]; incubations of ˜30 min) of the same substance?
**A.** continued viability

**Q.** What about the tolerated dose range ([1]; primary cells) of the same substance?
**A.** < 2 µM

**Q.** And the “spike frequency on illumination” value ([2]; 100 micromolar for 30 minutes, 480 nm)?
**A.** spike frequency increased

**Q.** And the “light-induced action potential firing” value ([2]; photoreceptor-degenerate retina)?
**A.** respond to illumination by firing action potentials

**Q.** And the “RCS rats showing light-evoked superior colliculus activity” value (RCS rats; intravitreal, final concentration 100 μM)?
**A.** 3 of 3

**Q.** And the “light-evoked electrical activity in superior colliculus” value (RCS rats; intravitreal, final concentration 100 μM, 30 minutes after injection)?
**A.** elicited reproducible and stereotypical electrical activity

**Q.** What about the “persistence of light-induced SC electrical responses after injection” value (RCS rats; single eye injection) of the same substance?
**A.** up to 3 days
